Consider 22 compounds from ChEMBL document CHEMBL1944600, “Synthesis of chromeno[3,4-b]indoles as Lamellarin D analogues: a novel DYRK1A inhibitor class” (Eur J Med Chem, 2012).

The target in test [1] is Dual specificity tyrosine-phosphorylation-regulated kinase 1A (Rattus norvegicus, UniProt Q63470). The test is described as follows: Inhibition of GST-tagged rat recombinant DYRK1A expressed in Escherichia coli using myelin basic protein as substrate and [gamma-33P]ATP after 30 mins by scintillation counting.
The target of test [2] is Cyclin-dependent kinase 5/CDK5 activator 1 (Homo sapiens, UniProt Q00535). In words: Inhibition of human recombinant CDK5/p25 using [gamma-33P]ATP after 30 mins by scintillation counting. The format is protein-complex assay.
Test [3] concerns the target Glycogen synthase kinase-3 (Sus scrofa, UniProt B2LUN4+I6LNT8). The test is described as follows: Inhibition of porcine brain GSK3alpha/beta using GS-1 as substrate.
The next test concerns CCRF-CEM. In words: Cytotoxicity against human CEM cells. The class given is functional, cell-based.
Test [4] deals with T1, DNA topoisomerase 1 (Homo sapiens) (UniProt P11387).
T1 sequence (whole entry): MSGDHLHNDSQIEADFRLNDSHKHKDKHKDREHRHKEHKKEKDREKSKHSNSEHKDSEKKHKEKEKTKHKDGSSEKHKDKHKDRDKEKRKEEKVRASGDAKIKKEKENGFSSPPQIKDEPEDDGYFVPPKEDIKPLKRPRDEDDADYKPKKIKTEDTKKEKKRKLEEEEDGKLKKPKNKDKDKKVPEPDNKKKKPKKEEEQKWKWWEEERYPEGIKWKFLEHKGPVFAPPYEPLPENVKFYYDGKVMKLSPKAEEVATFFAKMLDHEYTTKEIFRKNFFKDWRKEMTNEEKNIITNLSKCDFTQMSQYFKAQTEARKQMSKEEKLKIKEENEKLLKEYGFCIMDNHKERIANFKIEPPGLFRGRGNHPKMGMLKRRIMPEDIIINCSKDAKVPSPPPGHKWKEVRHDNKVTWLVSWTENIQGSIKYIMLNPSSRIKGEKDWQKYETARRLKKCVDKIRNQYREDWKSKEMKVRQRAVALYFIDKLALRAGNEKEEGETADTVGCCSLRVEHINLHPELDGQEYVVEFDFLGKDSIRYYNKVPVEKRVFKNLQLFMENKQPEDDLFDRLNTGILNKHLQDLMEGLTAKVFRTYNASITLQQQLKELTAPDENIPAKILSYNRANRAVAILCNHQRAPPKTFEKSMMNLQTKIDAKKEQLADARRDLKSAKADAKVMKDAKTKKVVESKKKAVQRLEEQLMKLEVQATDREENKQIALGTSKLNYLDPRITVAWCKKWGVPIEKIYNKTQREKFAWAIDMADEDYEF
The test is described as follows: Human topoisomerase 1-mediated nicking of supercoiled plasmid pUC19 DNA at 20 uM by agarose gel electrophoresis.

For test [5], the target named is T1, DNA topoisomerase 1 (Homo sapiens). In words: Human topoisomerase 1-mediated nicking of supercoiled plasmid pUC19 DNA at 100 uM by agarose gel electrophoresis.

Chain of Cyclin-dependent kinase 5/CDK5 activator 1 (Q00535 whole entry): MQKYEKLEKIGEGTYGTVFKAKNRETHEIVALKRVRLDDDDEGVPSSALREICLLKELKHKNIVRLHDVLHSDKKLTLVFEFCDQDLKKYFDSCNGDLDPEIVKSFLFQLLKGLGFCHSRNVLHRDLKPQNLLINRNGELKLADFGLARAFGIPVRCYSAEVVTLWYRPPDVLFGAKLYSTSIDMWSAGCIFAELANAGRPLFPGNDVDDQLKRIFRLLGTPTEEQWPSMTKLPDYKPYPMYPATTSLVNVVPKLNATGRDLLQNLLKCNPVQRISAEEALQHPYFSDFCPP
Chain of Cyclin-dependent kinase 5/CDK5 activator 1 (Q15078 whole entry, further chain): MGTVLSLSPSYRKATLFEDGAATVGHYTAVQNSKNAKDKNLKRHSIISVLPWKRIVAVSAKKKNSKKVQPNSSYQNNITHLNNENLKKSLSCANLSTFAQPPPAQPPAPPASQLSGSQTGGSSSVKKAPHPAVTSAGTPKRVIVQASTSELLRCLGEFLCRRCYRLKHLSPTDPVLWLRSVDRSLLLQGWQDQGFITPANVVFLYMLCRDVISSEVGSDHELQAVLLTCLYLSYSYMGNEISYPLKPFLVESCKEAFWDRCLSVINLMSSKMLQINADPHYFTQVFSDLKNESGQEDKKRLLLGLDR

`O=c1oc2ccccc2c2c1[nH]c1ccccc12`: the half-inhibitory concentration (IC50) in test [1], in test [2] and in test [3] was above 10 µM throughout.
Turning to `COc1ccc(-c2ccc3c(c2)[nH]c2c(=O)oc4ccc(O)cc4c23)cc1`, the half-inhibitory concentration (IC50) in test [1], in test [2] and in test [3] was above 10 µM each time.
As for `Cc1ccc2c(c1)[nH]c1c(=O)oc3ccc(O)cc3c12`, the IC50 (commonly the concentration at which inhibition is half-maximal) in test [1] was 3.3 µM; in test [2] it was above 10 µM; in test [3] it was above 10 µM.
For the compound `O=c1oc2cc(O)c(O)cc2c2c1[nH]c1ccc(O)cc12`, the results for the IC50 in test [1], in test [2] and in test [3] were 1.5 µM, above 10 µM and 1.3 µM, respectively.
The corresponding values for `COc1cccc2[nH]c3c(=O)oc4ccc(O)cc4c3c12` are 0.35 µM, at least 10 µM and 3.3 µM.
The corresponding values for `O=c1oc2ccc(O)cc2c2c1[nH]c1ccc(O)cc12` are 0.067 µM, 0.72 µM and 0.31 µM.
The corresponding values for `O=c1oc2ccc(O)cc2c2c1[nH]c1cc(O)ccc12` are 4.3 µM, above 10 µM and above 10 µM.
As to `COc1cccc2oc(=O)c3[nH]c4ccccc4c3c12`, the IC50 in test [1], in test [2] and in test [3] was above 10 µM throughout.
On to `Cc1cccc2[nH]c3c(=O)oc4ccc(O)cc4c3c12`, for which the IC50 in test [1] was 0.66 µM; in test [2], above 10 µM; in test [3] it was 5.9 µM.
Consider `O=c1oc2ccc(O)cc2c2c1[nH]c1cccc(C(F)(F)F)c12`, for which the results for the IC50 in test [1], in test [2] and in test [3] were 2.1 µM, above 10 µM and “>= 10 uM”, respectively.
On the same counts, the results for `O=c1oc2cc(O)ccc2c2c1[nH]c1ccccc12` are 0.5 µM, 4.7 µM and 0.44 µM.
On the same counts, the results for `O=c1oc2ccc(O)cc2c2c1[nH]c1ccccc12` are 0.074 µM, 2.7 µM and 0.38 µM.
Consider `O=c1oc2ccc(O)cc2c2c1[nH]c1ccc(C(F)(F)F)cc12`, for which the IC50 in test [1] is at least 10 µM; in test [2], at least 10 µM; in test [3], “>= 10 uM”.
With `CC[C@@]1(O)C(=O)OCc2c1cc1n(c2=O)Cc2cc3ccccc3nc2-1` [CAMPTOTHECIN], in the test on CCRF-CEM, half-maximal inhibition (IC50) required 0.005 µM.
Regarding `CCCOc1cccc2[nH]c3c(=O)oc4ccc(O)cc4c3c12`, the IC50 in test [1] is 1.7 µM; in test [2], above 10 µM; in test [3], 8.1 µM.
The corresponding values for `O=c1oc2ccc(O)cc2c2c1[nH]c1cccc(-c3ccc(O)cc3)c12` are at least 10 µM, at least 10 µM and above 10 µM.
`COc1cc(-c2c3c4cc(OC)c(O)cc4oc(=O)c3n3ccc4cc(O)c(OC)cc4c23)ccc1O` [LAMELLARIN D] yielded an IC50 with CCRF-CEM of 15 µM. Further, the % nicked DNA in test [4] stood at 22%; in test [5], 21%.
`O=c1oc2ccccc2c2c1[nH]c1cccc(-c3ccc(O)cc3)c12`: the IC50 is at least 10 µM in test [1], at least 10 µM in test [2] and above 10 µM in test [3].
On to `O=c1oc2cc(O)ccc2c2c1[nH]c1cc(O)ccc12`, for which the IC50 in test [1] is 3.2 µM; in test [2] it was 10 µM; in test [3], 10 µM.
As for `O=c1oc2ccc(O)cc2c2c1[nH]c1ccc(F)cc12`, the IC50 in test [1] came to 0.21 µM; in test [2] it was 8.4 µM; in test [3], 2.5 µM.
The corresponding values for `O=c1oc2ccc(O)cc2c2c1[nH]c1cc3c(cc12)OCO3` are 1.8 µM, 16 µM and above 10 µM.
`O=c1oc2cc(O)ccc2c2c1[nH]c1ccc(O)cc12`: the IC50 with CCRF-CEM is 38.5 µM; in test [1] it was 0.3 µM; in test [2] it was 4.2 µM; in test [3], 0.42 µM. Also, the % nicked DNA was determined as 16% in test [4] and 21% in test [5].
